For eight compounds, EC50 results are on record in US20250243171A1, “QUINAZOLINE COMPOUNDS FOR TREATMENT OF DISEASE” (Arthrosi Therapeutics, Inc., priority 2021, published 2025).

Common to all, as to assay: EC50 assay: Ba/F3 stable cell proliferation (CCK-8, 72 h)
Common to all, as to type: cell-based

The target of assay [1] is T1, Ba/F3 stable cells (Homo sapiens, UniProt P00533, DUP771-773, cells depend on it).
T1 construct: EC50 Ba/F3-EGFR H773-V774insNPH; other: Ba/F3-EGFR H773-V774insNPH cells, 72 h, CCK-8
T1 sequence (P00533 with tags, fused parts or gaps DUP771-773): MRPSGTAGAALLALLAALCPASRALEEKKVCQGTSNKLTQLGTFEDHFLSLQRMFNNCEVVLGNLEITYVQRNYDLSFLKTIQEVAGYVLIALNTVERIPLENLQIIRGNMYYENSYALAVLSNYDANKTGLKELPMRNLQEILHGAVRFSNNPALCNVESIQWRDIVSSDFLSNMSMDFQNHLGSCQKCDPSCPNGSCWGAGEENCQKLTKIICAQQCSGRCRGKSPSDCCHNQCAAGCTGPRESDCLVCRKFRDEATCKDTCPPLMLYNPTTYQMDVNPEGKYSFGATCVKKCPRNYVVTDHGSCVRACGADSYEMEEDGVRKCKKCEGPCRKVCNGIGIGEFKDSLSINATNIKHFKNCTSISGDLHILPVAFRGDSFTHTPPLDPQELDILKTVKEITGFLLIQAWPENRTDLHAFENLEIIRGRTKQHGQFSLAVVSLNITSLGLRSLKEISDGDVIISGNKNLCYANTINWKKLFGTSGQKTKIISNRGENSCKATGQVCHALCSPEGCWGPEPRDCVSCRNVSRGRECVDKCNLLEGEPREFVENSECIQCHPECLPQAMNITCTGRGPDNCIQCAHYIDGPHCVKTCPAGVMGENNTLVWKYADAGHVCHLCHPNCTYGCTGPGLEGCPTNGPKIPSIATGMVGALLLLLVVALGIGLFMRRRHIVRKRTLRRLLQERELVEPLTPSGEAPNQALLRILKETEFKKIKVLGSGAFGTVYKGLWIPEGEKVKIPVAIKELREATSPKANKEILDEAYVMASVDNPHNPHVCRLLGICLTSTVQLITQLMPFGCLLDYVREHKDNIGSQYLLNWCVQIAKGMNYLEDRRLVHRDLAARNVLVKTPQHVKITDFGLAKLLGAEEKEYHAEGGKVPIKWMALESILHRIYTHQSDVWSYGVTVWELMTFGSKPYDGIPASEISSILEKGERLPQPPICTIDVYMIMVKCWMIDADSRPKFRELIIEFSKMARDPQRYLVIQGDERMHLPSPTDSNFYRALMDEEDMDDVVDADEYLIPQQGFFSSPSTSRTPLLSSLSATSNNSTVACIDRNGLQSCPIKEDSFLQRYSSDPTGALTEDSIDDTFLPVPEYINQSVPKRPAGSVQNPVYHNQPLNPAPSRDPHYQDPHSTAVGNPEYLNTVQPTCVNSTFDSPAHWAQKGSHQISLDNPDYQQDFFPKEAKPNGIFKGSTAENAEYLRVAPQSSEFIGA
Particulars: Ba/F3-EGFR H773-V774insNPH cells. In short, it runs like this:
(§1)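 Ba/F3 stable cells were seeded at 4,000 cells/90 μL/well in 96-well plates and held 2 h at 37° C. in 5% CO2, then given 10 μL of serially titrated compound (0.1% DMSO final). After 72 h at 37° C., CCK-8 reagent was added for 4 hours and absorbance read at 450 nm to derive EC50.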

In assay [2] the target is T2, Ba/F3 stable cells (Homo sapiens, UniProt P00533, INS763FQEA, cells depend on it).
T2 construct: EC50 Ba/F3-EGFR A763-Y764insFQEA; other: Ba/F3-EGFR A763-Y764insFQEA cells, 72 h, CCK-8
T2 sequence (P00533 with tags, fused parts or gaps INS763FQEA): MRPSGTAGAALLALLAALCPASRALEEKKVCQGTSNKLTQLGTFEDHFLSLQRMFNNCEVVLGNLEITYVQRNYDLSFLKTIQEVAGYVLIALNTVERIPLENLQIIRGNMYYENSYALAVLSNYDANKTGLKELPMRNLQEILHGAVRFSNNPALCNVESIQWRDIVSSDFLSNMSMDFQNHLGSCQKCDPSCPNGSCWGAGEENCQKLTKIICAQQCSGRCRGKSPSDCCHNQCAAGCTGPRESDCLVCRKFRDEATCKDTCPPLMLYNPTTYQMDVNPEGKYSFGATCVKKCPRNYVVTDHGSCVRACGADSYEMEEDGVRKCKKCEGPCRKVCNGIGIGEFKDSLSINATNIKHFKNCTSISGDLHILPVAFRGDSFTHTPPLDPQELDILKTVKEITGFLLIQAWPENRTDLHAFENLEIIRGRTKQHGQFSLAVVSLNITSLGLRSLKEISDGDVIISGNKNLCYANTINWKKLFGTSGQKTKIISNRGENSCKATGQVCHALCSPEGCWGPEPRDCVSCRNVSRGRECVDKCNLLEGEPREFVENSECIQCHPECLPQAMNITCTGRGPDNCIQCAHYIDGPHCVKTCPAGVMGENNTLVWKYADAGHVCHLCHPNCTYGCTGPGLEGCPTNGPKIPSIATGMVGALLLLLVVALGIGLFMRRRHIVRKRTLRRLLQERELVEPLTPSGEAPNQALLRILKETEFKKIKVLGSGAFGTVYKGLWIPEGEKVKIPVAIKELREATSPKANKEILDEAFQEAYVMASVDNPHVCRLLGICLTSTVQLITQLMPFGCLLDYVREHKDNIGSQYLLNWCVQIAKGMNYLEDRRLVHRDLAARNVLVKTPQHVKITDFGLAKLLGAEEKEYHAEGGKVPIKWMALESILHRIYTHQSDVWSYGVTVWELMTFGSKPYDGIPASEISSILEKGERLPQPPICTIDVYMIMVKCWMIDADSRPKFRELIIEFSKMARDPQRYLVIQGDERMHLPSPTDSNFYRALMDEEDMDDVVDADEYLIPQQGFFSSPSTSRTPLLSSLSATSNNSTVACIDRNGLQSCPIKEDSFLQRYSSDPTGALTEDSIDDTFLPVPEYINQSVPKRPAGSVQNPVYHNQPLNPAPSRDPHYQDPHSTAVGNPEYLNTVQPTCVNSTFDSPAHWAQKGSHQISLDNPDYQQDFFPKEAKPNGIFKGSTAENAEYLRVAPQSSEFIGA
Particulars: Ba/F3-EGFR A763-Y764insFQEA cells. A digest of the protocol: as §1

Assay [3] has as its target T3, Ba/F3 stable cells (Homo sapiens, UniProt P00533, T790M/L858R, cells depend on it).
T3 construct: EC50 Ba/F3-EGFR L858R-T790M; other: Ba/F3-EGFR L858R-T790M cells, 72 h, CCK-8
Particulars: Ba/F3-EGFR L858R-T790M cells. A digest of the protocol: as §1

The target in assay [4] is T4, Ba/F3 stable cells (Homo sapiens, UniProt P04626, DUP772-775, cells depend on it).
T4 construct: EC50 Ba/F3-HER2 A775-G776insYVMA; other: Ba/F3-HER2 A775-G776insYVMA cells, 72 h, CCK-8
T4 sequence (P04626 with tags, fused parts or gaps DUP772-775): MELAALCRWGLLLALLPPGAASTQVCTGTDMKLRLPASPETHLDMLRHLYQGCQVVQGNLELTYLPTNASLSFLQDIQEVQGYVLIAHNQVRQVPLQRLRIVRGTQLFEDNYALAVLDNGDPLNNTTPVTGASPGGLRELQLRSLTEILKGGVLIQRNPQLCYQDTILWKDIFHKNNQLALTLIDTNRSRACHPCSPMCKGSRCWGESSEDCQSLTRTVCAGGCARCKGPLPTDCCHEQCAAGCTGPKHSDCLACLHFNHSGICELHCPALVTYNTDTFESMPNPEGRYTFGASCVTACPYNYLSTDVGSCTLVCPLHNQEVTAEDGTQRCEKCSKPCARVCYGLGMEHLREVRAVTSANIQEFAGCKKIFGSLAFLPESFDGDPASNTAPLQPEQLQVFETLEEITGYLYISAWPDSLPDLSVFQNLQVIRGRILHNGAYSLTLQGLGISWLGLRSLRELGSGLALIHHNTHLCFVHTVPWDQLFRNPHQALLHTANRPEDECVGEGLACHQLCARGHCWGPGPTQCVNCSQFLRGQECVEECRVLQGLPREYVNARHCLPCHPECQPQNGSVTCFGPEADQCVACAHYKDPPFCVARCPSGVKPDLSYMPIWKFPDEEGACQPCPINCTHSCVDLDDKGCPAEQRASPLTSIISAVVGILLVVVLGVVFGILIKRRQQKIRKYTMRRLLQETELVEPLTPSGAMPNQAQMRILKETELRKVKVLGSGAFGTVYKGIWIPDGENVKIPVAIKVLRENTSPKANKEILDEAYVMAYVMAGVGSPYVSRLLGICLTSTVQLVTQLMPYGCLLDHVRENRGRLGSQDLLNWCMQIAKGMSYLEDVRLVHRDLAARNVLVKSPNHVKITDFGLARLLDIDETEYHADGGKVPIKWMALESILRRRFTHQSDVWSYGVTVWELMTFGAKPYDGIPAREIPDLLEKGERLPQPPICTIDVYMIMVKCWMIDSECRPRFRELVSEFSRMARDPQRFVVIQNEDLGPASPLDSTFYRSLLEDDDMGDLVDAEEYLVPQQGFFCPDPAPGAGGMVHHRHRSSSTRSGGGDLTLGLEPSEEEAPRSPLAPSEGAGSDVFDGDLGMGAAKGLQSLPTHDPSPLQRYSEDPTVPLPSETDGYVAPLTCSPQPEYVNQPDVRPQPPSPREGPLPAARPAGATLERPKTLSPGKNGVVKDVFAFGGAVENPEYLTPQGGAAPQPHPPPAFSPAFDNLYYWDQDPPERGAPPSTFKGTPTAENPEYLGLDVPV
Particulars: Ba/F3-HER2 A775-G776insYVMA cells. A digest of the protocol: as §1

Assay [5] deals with T5, Ba/F3 stable cells (Homo sapiens, UniProt P00533, DUP768-770, cells depend on it).
T5 construct: EC50 Ba/F3-EGFR D770-N771insSVD; other: Ba/F3-EGFR D770-N771insSVD cells, 72 h, CCK-8
Particulars: Ba/F3-EGFR D770-N771insSVD cells. A digest of the protocol:
as §1

In assay [6] the target is T6, Ba/F3 stable cells (Homo sapiens, UniProt P00533, DUP767-769, cells depend on it).
T6 construct: EC50 Ba/F3-EGFR V769-D770insASV; other: Ba/F3-EGFR V769-D770insASV cells, 72 h, CCK-8
T6 sequence (P00533 with tags, fused parts or gaps DUP767-769): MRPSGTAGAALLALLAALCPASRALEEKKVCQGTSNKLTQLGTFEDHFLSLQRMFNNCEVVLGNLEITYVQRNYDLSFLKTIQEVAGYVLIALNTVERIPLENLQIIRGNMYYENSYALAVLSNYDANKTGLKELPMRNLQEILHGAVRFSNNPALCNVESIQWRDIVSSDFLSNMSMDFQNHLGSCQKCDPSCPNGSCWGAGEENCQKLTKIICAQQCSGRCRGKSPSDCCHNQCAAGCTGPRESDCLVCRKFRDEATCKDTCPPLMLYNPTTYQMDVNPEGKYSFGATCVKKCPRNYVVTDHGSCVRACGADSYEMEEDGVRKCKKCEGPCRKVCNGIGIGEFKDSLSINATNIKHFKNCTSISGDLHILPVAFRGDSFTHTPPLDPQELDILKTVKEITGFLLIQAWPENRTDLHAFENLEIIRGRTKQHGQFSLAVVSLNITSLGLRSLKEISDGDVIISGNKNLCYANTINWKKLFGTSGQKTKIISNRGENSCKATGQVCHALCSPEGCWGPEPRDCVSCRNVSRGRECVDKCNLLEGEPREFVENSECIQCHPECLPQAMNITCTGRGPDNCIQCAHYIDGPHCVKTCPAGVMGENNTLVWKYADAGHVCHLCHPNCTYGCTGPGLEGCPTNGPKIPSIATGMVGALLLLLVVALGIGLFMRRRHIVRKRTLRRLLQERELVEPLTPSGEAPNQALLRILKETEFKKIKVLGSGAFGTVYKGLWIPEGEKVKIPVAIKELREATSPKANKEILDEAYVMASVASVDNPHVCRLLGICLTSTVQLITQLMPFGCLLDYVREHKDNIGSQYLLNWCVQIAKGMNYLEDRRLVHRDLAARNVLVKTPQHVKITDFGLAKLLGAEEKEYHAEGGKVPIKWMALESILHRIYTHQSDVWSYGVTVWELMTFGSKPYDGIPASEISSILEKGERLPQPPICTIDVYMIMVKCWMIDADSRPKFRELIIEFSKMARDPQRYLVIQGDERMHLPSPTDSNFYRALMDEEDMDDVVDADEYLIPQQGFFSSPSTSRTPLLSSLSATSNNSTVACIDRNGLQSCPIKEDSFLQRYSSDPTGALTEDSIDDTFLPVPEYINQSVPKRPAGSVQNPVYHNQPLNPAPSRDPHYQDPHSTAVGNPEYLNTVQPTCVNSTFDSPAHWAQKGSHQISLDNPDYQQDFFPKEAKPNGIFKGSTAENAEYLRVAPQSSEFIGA
Particulars: Ba/F3-EGFR V769-D770insASV cells. A digest of the protocol: as §1

Broadly, the EC50 is the concentration needed to bring the measured effect to its halfway point. A low value points to a more potent agent. Take `C=CC(=O)N1C2CCCC1CC(Oc1cc3c(Nc4cccc5ccccc45)ncnc3cc1OC)C2` (stereo not drawn) [Compound 178, 1-(3-((7-methoxy-4-(naphthalen-1-ylamino)quinazolin-6-yl)oxy)-9-azabicyclo[3.3.1]nonan-9-yl)prop-2-en-1-one]: the EC50 at Ba/F3 stable cells [1] is at most 200 nM; on Ba/F3 stable cells [2] it was at most 200 nM; on Ba/F3 stable cells [3], at most 200 nM; on Ba/F3 stable cells [4], at most 200 nM; on Ba/F3 stable cells [5] it was 200 to 1000 nM; on Ba/F3 stable cells [6], at most 200 nM.
`C=CC(=O)N1C2CCCC1CC(Oc1cc3c(Nc4ccc5ccccc5c4)ncnc3cc1OC)C2` (stereo not drawn) [Compound 179, 1-(3-((7-methoxy-4-(naphthalen-2-ylamino)quinazolin-6-yl)oxy)-9-azabicyclo[3.3.1]nonan-9-yl)prop-2-en-1-one]: the EC50 is at most 200 nM at Ba/F3 stable cells [1]; at most 200 nM on Ba/F3 stable cells [2]; at most 200 nM on Ba/F3 stable cells [3]; at most 200 nM on Ba/F3 stable cells [4]; 200 to 1000 nM at Ba/F3 stable cells [5]; at most 200 nM at Ba/F3 stable cells [6].
Consider `C=CC(=O)N1C2CCC1CC(Oc1cc3c(Nc4ccc5ccccc5c4)ncnc3cc1OC)C2` (stereo not drawn) [Compound 180, 1-(3-((7-methoxy-4-(naphthalen-2-ylamino)quinazolin-6-yl)oxy)-8-azabicyclo[3.2.1]octan-8-yl)prop-2-en-1-one], for which the EC50 on Ba/F3 stable cells [1], on Ba/F3 stable cells [2], at Ba/F3 stable cells [3], at Ba/F3 stable cells [4], on Ba/F3 stable cells [5] and at Ba/F3 stable cells [6] was at most 200 nM in each case.
With `C=CC(=O)N1C2CCC1CC(Oc1cc3c(Nc4cccc5ccccc45)ncnc3cc1OC)C2` (stereo not drawn) [Compound 181, 1-(3-((7-methoxy-4-(naphthalen-1-ylamino)quinazolin-6-yl)oxy)-8-azabicyclo[3.2.1]octan-8-yl)prop-2-en-1-one], the EC50 at Ba/F3 stable cells [1], on Ba/F3 stable cells [2], on Ba/F3 stable cells [3], on Ba/F3 stable cells [4], on Ba/F3 stable cells [5] and on Ba/F3 stable cells [6] was at most 200 nM each time.
On to `C=CC(=O)N1C2CCCC1CC(Oc1cc3c(Nc4cccc5c4CCC5)ncnc3cc1OC)C2` (stereo not drawn) [Compound 182, 1-(3-((4-((2,3-dihydro-1H-inden-4-yl)amino)-7-methoxyquinazolin-6-yl)oxy)-9-azabicyclo[3.3.1]nonan-9-yl)prop-2-en-1-one], for which the EC50 at Ba/F3 stable cells [1] was 200 to 1000 nM; at Ba/F3 stable cells [2] it was at most 200 nM; at Ba/F3 stable cells [3] it was 200 to 1000 nM; at Ba/F3 stable cells [4] it was above 1000 nM; at Ba/F3 stable cells [5], above 1000 nM; at Ba/F3 stable cells [6] it was 200 to 1000 nM.
Consider `C=CC(=O)N1C2CCC1CC(Oc1cc3c(Nc4cccc5c4CCC5)ncnc3cc1OC)C2` (stereo not drawn) [Compound 183, 1-(3-((4-((2,3-dihydro-1H-inden-4-yl)amino)-7-methoxyquinazolin-6-yl)oxy)-8-azabicyclo[3.2.1]octan-8-yl)prop-2-en-1-one], for which the EC50 is at most 200 nM at Ba/F3 stable cells [1]; at most 200 nM at Ba/F3 stable cells [2]; at most 200 nM on Ba/F3 stable cells [3]; 200 to 1000 nM on Ba/F3 stable cells [4]; 200 to 1000 nM on Ba/F3 stable cells [5]; at most 200 nM on Ba/F3 stable cells [6].
As to `C=CC(=O)N1CCCC(c2ccc3ncnc(Nc4ccc(Cl)c(Cl)c4F)c3c2)C1` (stereo not drawn) [Compound 184, 1-(3-(4-((3,4-dichloro-2-fluorophenyl)amino)quinazolin-6-yl)piperidin-1-yl)prop-2-en-1-one], the EC50 on Ba/F3 stable cells [1] is 200 to 1000 nM; on Ba/F3 stable cells [2], at most 200 nM; at Ba/F3 stable cells [3] it was above 1000 nM; on Ba/F3 stable cells [4], at most 200 nM; at Ba/F3 stable cells [5], 200 to 1000 nM; on Ba/F3 stable cells [6], at most 200 nM.
Consider `C=CC(=O)N1CCCC(c2cc3c(Nc4ccc(Cl)c(Cl)c4F)ncnc3cc2OC)C1` (stereo not drawn) [Compound 185, 1-(3-(4-((3,4-dichloro-2-fluorophenyl)amino)-7-methoxyquinazolin-6-yl)piperidin-1-yl)prop-2-en-1-one], for which the EC50 was at most 200 nM on Ba/F3 stable cells [1]; at most 200 nM at Ba/F3 stable cells [2]; at most 200 nM on Ba/F3 stable cells [3]; 200 to 1000 nM at Ba/F3 stable cells [4]; 200 to 1000 nM at Ba/F3 stable cells [5]; at most 200 nM on Ba/F3 stable cells [6].
